Experimental data taken from patent US20100247659A1, “PHENYLPHTHALIMIDE ANALOGS FOR TREATING DIABETIC MACULAR EDEMA” (Charlesson, LLC, priority 2007, published 2010).
pIC50: −log10 of the molar value.

Key:
BRCEC = experiment: MTT cell proliferation assay, BRCEC; format: cell-based, bovine; conditions: Bos taurus, 72 h, treated 3 days, read-out: IC50, inhibition of proliferation of BRCEC
Text: (§1) Cell culture: All cell culture media and supplements were purchased from Cellgro unless otherwise indicated. Human Umbilical Vein Endothelial Cells (HUVEC) were obtained from American Type Culture Collection and grown in the EBM-MV2 medium (Clonetics). Bovine Retinal Endothelial Cells (BREC) and pericytes were isolated according to a modified method as described previously (Wong, et al. Investig. Opthalmol. Vis. Sci. 1987, 28: 1767-1775). Twelve bovine eyes were obtained from a local slaughterhouse (Country Home Meats). The retinas were removed and washed four times in DMEM. Subsequently retinas were homogenized and centrifuged at 400×g for 10 min. The resultant pellet was resuspended in an isolation medium (DMEM with 100 IU/ml penicillin, 100 μg/ml streptomycin and 250 ng/ml amphotericin). Microvessels were trapped on an 85 μm nylon mesh (Locker Wire Weavers LTD) and transferred to a petri dish (Falcon) containing 10 ml of an enzyme cocktail which consisted of 600 μg/ml DNase I (Sigma), 165 μg/ml collagenase (Sigma) and 700 μg/ml Pronase E (EMD) and were incubated at 37° C. for 20 min. The resultant vessel fragments were trapped on a 53 μm nylon mesh (Locker Wire Weavers LTD), washed with the isolation medium and centrifuged at 400×g for 5 min. For selective culture of pericytes, the resultant pellet was resuspended in 10 ml of the pericyte growth medium and transferred into 75-cm^2 plastic tissue culture flasks (BD Biosciences). For selective culture of BRCECs, the resultant pellet was resuspended in 10 ml of the BRCEC growth medium and transferred into 75-cm^2 collagen-coated plastic tissue culture flasks (BD Biosciences). The BRCEC growth medium consisted of DMEM supplemented with 10% human serum, 1% glutamine, 1 mg/ml insulin, 550 μg/ml transferring, 670 ng/ml selenium, 100 IU/ml penicillin, 100 μg/ml streptomycin, 250 ng/ml amphotericin, 90 μg/ml heparin (Sigma) and 15 μg/ml endothelial cell growth supplement (Upstate). Cells were cultured at 37° C. and 5% CO2 with regular medium change every 3 days. Confluence cultures were passaged by detaching the cells with 0.25% trypsin and plated at a split 1:3. […] At passage 2, BRCECs and pericytes were stored in a liquid nitrogen tank for future use.
MTT assay: Cells were seeded at a density of 5×10^4 cells per well in 400 μl of growth medium in triplicate in 24-well plates (Nalge Nunc) or gelatin-coated 24-well plates. […] The absorbance of the formazen product was measured at a wavelength of 570 nm, with 750 nm as the (subtracted) reference wavelength.
Primary endothelial cells (HUVEC and BRCEC) and pericytes were treated with various concentrations of the compounds for 3 days. Viable cells were quantified using MTT assay and IC50 of each compound was calculated (mean±SD, n=3, FIG. 1). […]

[1] = system: CAM blood vessel formation induced by VEGF/bFGF; experiment: Chicken chorioallantoic membrane (CAM) assay; format: in vivo; conditions: 200 ng VEGF-165/bFGF, 48 hr
Method: Chicken chorioallantoic membrane (CAM) assay: The fertile Leghorn chicken eggs were incubated in a humidified environment at 37.5° C. for 10 days. […] Anti-angiogenic compounds were then added 8 hr after the VEGF/bFGF at saturation to the same microbial testing disk, and the embryos were incubated for an additional 40 h. CAMs were then removed, quickly fixed with 4% paraformaldehyde in PBS, placed onto Petri dishes, and digitized images taken at 7.5× using a Nikon dissecting microscope and Scion Imaging system. A 1×1-cm grid was then added to the digital CAM images and the average number of vessels within 5-7 grids counted as a measure of vascularity.
CAM assay was used for in vivo anti-angiogenic studies. The fertile leghorn chicken eggs were allowed to incubate in a humidified environment at 37.5° C. for 10 days. […] Anti-angiogenic compounds were then added 8 hours after the VEGF/bFGF at saturation to the same microbial testing disk and embryos allowed to incubate for an additional 40 hours. After 48 hr, CAMs were removed, quickly fixed with 4% paraformaldehyde in PBS, placed onto Petri dishes, and digitized images taken at 7.5× using a Nikon dissecting microscope and Scion Imaging system. A 1×1-cm grid was then added to the digital CAM images and the average number of vessels within 5-7 grids counted as a measure of vascularity.
FIG. 14 is a table comparing the effect of Compound 4 on blood vessel formation. […] Data represent mean±SD of 8-16 samples from 2-3 separate experiments.

HUVEC [2] = experiment: MTT cell proliferation assay, HUVEC; format: cell-based; conditions: Homo sapiens, 72 h, treated 3 days, read-out: IC50, inhibition of proliferation of HUVEC
Text: as §1
MTT assay: Cells were seeded at a density of 5×10^4 cells per well in 400 μl of growth medium in triplicate in 24-well plates (Nalge Nunc) or gelatin-coated 24-well plates. Twenty-four hours after seeding, the growth medium was replaced by a medium containing 1% FBS, with or without different concentrations of thalidomide or phenylphthalimide analogs. After the cells were treated for 48-72 h, MTT was added to a final concentration of 0.5 mg of medium per ml and incubated for 4 h at 37° C. in 5% CO2. An equal volume of solubilizer buffer is then added, following the protocol recommended by the manufacturer (Roche Molecular Biochemicals), the cells will be incubated overnight at 37° C. in 5% CO2. The absorbance of the formazen product was measured at a wavelength of 570 nm, with 750 nm as the (subtracted) reference wavelength.
Primary endothelial cells (HUVEC and BRCEC) and pericytes were treated with various concentrations of the compounds for 3 days. Viable cells were quantified using MTT assay and IC50 of each compound was calculated (mean±SD, n=3, FIG. 1). The IC50 values represent the means and SE of 3 independent experiments.

STZ-diabetic rats = experiment: Retinal vascular leakage in STZ-diabetic rats, intravitreal injection; format: in vivo, rat; conditions: for reduction of retinal vascular leakage vs vehicle control: single intravitreal 1.0 μg/eye (5 μl 0.8 mM), 48 h; for reduction of retinal vascular permeability: two days
Method: Induction of diabetes by streptozotocin (STZ): BN rats (8 weeks of age) were given a single intraperitoneal injection of fresh made streptozotocin (STZ) (Sigma, 50 mg/kg in 10 mM of citrate buffer, pH 4.5) following an overnight fasting. Control rats received an injection of citrate buffer alone. Blood glucose levels were checked at 24 hours following the last STZ injection and once a week thereafter, and only the animals with glucose levels higher than 350 mg/dl were considered diabetic. Rats with hyperglycemia for 2 weeks were used for these experiments.
(§2) Intravitreal injection of compounds: Thalidomide and the phenylphthalimide analogs Compounds 1, 2 and Compound 4 were dissolved in vehicle (BN rat serum) and sterilized by filtration. OIR and STZ-diabetic BN rats received an intravitreal injection of 0.5-2.0 μg/eye of (5 μl/eye, 0.1-0.4 mg/ml in BN rat serum) of thalidomide, Compounds 1, 2 or Compound 4 into the right eye and the equal volume of the BN rat serum into the left eye.
Evans blue dye (Sigma) was dissolved in 0.9% saline (30 mg/ml), sonicated for 5 min and filtered through a 0.45-μm filter (Millipore). The rats were then anesthetized, and Evans blue (30 mg/kg) was injected over 10 s through the femoral vein using a glass capillary under microscopic inspection. Evans blue non-covalently binds to plasma albumin in the blood stream. Immediately after Evans blue infusion, the rats turned visibly blue, confirming their uptake and distribution of the dye. The rats were kept on a warm pad for 2 h to ensure the complete circulation of the dye. Then the chest cavity was opened, and the rats were perfused via the left ventricle with 1% paraformaldehyde in citrate buffer (pH 4.2) which was pre-warmed to 37° C. to prevent vasoconstriction. The perfusion lasted 10 min under the physiological pressure of 120 mmHg, in order to clear the dye from the vessel. Immediately after perfusion, the eyes were enucleated and the retinas were carefully dissected under an operating microscope. Evans blue dye was extracted by incubating each sample in 150 μl of formamide for 18 h at 70° C. The extract was centrifuged (Beckman) at 70,000 rpm (Rotor type: TLA 100.3) for 20 min at 4° C. Absorbance was measured using 100 μl of the supernatant at 620 nm by using Spectrophotometer DU800 (Beckman). The concentration of Evans blue in the extract was calculated from a standard curve of Evans blue in formamide and normalized by the total protein concentration in each sample. Results were expressed in mg of Evans blue per mg of total protein content.
Diabetes was induced by injection of STZ (50 mg/kg, i.v.) into adult BN rats after overnight fasting. Blood glucose levels were monitored at the second day after the injection and once a week thereafter. Rats with glucose levels above 350 mg/dl were considered as diabetic and used for the study. thalidomide, Compounds 1, 2 and 4 were separately injected into the vitreous space (5 μl, 0.8 mM in BN rat serum) of the right eye of STZ-diabetic rats 2 wks after the induction of diabetes. At 48 h after the injection, retinal vascular leakage was measured using the Evans blue-albumin leakage method.
To determine the dose-response relationship of the effect of Compound 4 and thalidomide, the STZ-diabetic rats received an intravitreal injection of Compound 4 and thalidomide with doses of 0.5, 0.75 and 1.0 μg/eye (5 μl/eye of 0.10, 0.15 and 0.20 mg/ml), respectively.

OIR rats = experiment: Retinal vascular leakage in OIR rats, intravitreal injection; format: in vivo, rat; conditions: for retinal vascular leakage as % of contralateral vehicle-injected eyes: intravitreal 5 μl 0.8 mM at P14, measured P16; for reduction of retinal vascular leakage vs vehicle control: single intravitreal 1.0 μg/eye (5 μl 0.8 mM) at P14, measured P16
Text: Induction of oxygen-induced retinopathy (OIR): Induction of OIR followed the procedure as described by Smith et al (Smith, et al. Invest. Opthalmol. Vis. Sci. 1994, 35: 101-111) with some modifications. Briefly, Newborn Brown Norway (BN) rats (Charles River Laboratories) at postnatal day 7 (P7) were exposed to hyperoxia (75% O2) for 5 days (P7-12) and then returned to normoxia (room air) to induce retinopathy.
as §2
Measurement of vascular permeability: Vascular permeability was quantified by measuring leakage of FITC-albumin or Evans blue dye-albumin complex from the blood vessels into the retina as described (Xu, et al. Invest. Opthalmol. Vis. Sci. 2001, 42:789-794), with some modifications. Briefly, FITC-albumin was injected through the femoral vein and circulated for 2 h. The rats were then perfused via the left ventricle. The retinas were carefully dissected and homogenized. The concentrations of FITC-albumin were measured in a fluorometer and normalized by the total protein concentration in each retina and by plasma concentration of FITC-albumin.
To induce OIR, BN rats at postnatal day 7 (P7) were exposed to hyperoxia (75% O2) for 5 days (P7-P12) and then returned to normoxia. Normal control rats were kept in room air. At P14, the OIR BN rats received an intravitreal injection of 5 μl (0.8 mM in BN rat serum)/eye of thalidomide, Compound 1, Compound 2, or Compound 4 into the right eye and same volume of the BN rat serum into the left eye. Retinal vascular leakage was measured using FITC-labeled albumin as tracer. Normal non-OIR BN rats (n=6) served as baseline at P16.
To determine if the effect of Compound 4 on retinal vascular leakage was dose-dependent, the OIR rats at P14 received a single injection of Compound 4 with doses of 0.5, 0.75 and 1.0 μg/eye (5 μl of 0.10, 0.15 and 0.20 mg/ml).
In FIG. 7A, OIR rats received an intravitreal injection of 5 μl (0.8 mM in BN rat serum)/eye of thalidomide, Compounds 1, 2, or 4 in the right eye and the same volume of the vehicle in the left eye at P14. Vascular leakage was measured using the FITC-labeled albumin leakage method at P16 and expressed as fd/pr of protein in the retina (mean±SD, n=6). Each of the experimental group was compared with contralateral eye by Student's t test. Retinal vascular leakage in normal non-OIR rats at age of P16 were used as baseline at P16. In FIG. 7B, vascular leakage in the compound-injected eyes was expressed as a percentage of average vascular leakage in the vehicle-injected contralateral eyes. For the control, the average vascular leakage in vehicle-treated retinas was used as 100%. […] In FIGS. 7C and 7D, OIR rats received an intravitreal injection of Compound 4 or thalidomide with doses as indicated at P14. Permeability was measured at P16 and expressed as fd/pr of protein in the retina (mean±SD, n=6). Each of the experimental group was compared with the vehicle control by the paired Student's t test. “Normal” is represented as the permeability in normal rats at P16.

HUVEC [3] = experiment: Endothelial cell migration (invasion) assay; format: cell-based; conditions: Homo sapiens, VEGF 4 ng/ml, invasion through Matrigel, read-out: IC50, inhibition of HUVEC migration
Method: Cells were allowed to invade for 22±1 hours. Cells were labeled post invasion with Calcein AM (4 μg/ml) and measured by detecting the fluorescence of cells that invaded through the BD Matrigel™ Matrix with an Applied Biosystems CytoFluor® 4000 plate reader at 485 nm excitation and 530 nm emission.
In this assay system, human endothelial cells are allowed to invade and are then labeled with fluorescent dye Calcein AM before quantification on a fluorometer.
In FIG. 2B, cells were seeded at 5×10^4/insert in EBM-2 containing 0.1% BSA in multi-well inserts. The assembled assays were allowed to proceed for 6 hours. The results are expressed as percent inhibition of migration as compared to control (no inhibitor). Data represents the average of 3 experiments, each run in triplicate. The bars represent mean±SD.

Row | SMILES | pIC50 (BRCEC) | ED50, dose reducing blood vessel number to 50% of VEGF/bFGF alone group [1] [μg/embryo] | pIC50 (HUVEC [2]) | reduction of retinal vascular leakage vs vehicle control (STZ-diabetic rats) [%] | retinal vascular leakage as % of contralateral vehicle-injected eyes (OIR rats) [%] | reduction of retinal vascular leakage vs vehicle control (OIR rats) [%] | pIC50 (HUVEC [3]) | reduction of retinal vascular permeability (STZ-diabetic rats; dose of 0.5 μg/eye) | reduction of retinal vascular permeability (STZ-diabetic rats; doses of 0.75 and 1.0 μg/eye) | reduction of retinal vascular leakage (OIR rats; dose of 0.5 μg/eye) | reduction of retinal vascular leakage (OIR rats; doses of 0.75 and 1.0 μg/eye)
1 | CC(C)c1cccc(C(C)C)c1N1C(=O)c2ccc(N)cc2C1=O [Compound 4] | 5.74 | 6.5 | 5.70 | ~100 | 61 | 40 | > 6.00 | – | – | – | –
2 | O=C1CCC(N2C(=O)c3ccccc3C2=O)C(=O)N1 (stereo not drawn) [thalidomide] | < 4.49 | > 100 | < 4.00 | 77 | 82 | 18 | < 4.00 | not at 0.5 μg/eye | showed an inhibitory effect | not at the dose of 0.5 μg/eye | significantly reduced vascular leakage
